# Test results: patent publication US20050208146A1, “Novel dosage and administration method for oral camptosar” (Pfizer Inc, priority 2003, published 2005)
# Where “and” joins values, the source holds several entries; their conditions need not be identical. Identical values can stand only once. Entries after “also recorded” stand apart in the source; their conditions may differ.
# Columns and labels:
# [1] = Pharmacokinetics and absolute bioavailability at MTD, IV/oral cross-over in patients; details: for AUC(0-inf): 60 mg/m2, AUC0-inf; for Cmax: 60 mg/m2, Cmax
# Description: (§1) The protocol had two stages, Stage A directed to dose escalation and Stage B directed to pharmacokinetics and bioavailability measurement. Patients were treated as in Table 3. […] MTD is defined as the dose level below which 2/3 or preferably 2/6 patients experience DLT.
# (§2) In addition, evidence of antitumor activity can be evaluated.
# [2] = Comparison of exposure over 6-week period, oral vs IV irinotecan
# [3] = Dose escalation to MTD, DLT and grade 3/4 toxicities of oral irinotecan semi-solid matrix capsules in patients with solid tumors; assay type: in vivo, human; details: for DLT (kind and grade) / Pts with DLT: first cycle
# Description: Patients were treated as in Table 3. […]
# Oral irinotecan can be formulated as follows.
# The patients received starting doses of 50 (n=7), 60 (n=32), or 70 (n=4) mg/m^2/d. […] See also Tables 6 and 7.
# [4] = system: solid tumors; test: Best overall tumor response in patients treated with oral irinotecan; assay type: in vivo, human; details: oral irinotecan daily x5 q 3 weeks
# Description: as §1, §2
# [5] = clinical; details: human
# [6] = plasma, irinotecan 60 mg/m^2 IV, N=14
# [7] = plasma, irinotecan 60 mg/m^2 PO, N=14
# [8] = IV Irinotecan, weekly x 4 q 6 weeks x 1 cycle, N=99
# [9] = All Cycles, 60 mg/m^2/day, N=32
structure (smiles),measurement,setting,value
"CCc1c2c(nc3ccc(O)cc13)-c1cc3c(c(=O)n1C2)COC(=O)[C@]3(O)CC [SN-38, 7-ethyl-10-hydroxycamptothecin]","AUC0-inf, mean ± SD","[1]; irinotecan 60 mg/m^2 IV, N=14",167 ± 77.8 ng·h/mL
same,"AUC0-inf, median","[1]; irinotecan 60 mg/m^2 IV, N=14",169 ng·h/mL
same,"AUC0-inf, range","[1]; irinotecan 60 mg/m^2 IV, N=14",55.1 to 358 ng·h/mL
same,"t1/2, mean ± SD","[1]; irinotecan 60 mg/m^2 IV, N=14",22.95 ± 19.41 h
same,"t1/2, median","[1]; irinotecan 60 mg/m^2 IV, N=14",19.31 h
same,"t1/2, range","[1]; irinotecan 60 mg/m^2 IV, N=14",8.63 to 94.9 h
same,"tmax, median","[1]; irinotecan 60 mg/m^2 IV, N=14",0.5 h
same,"tmax, range","[1]; irinotecan 60 mg/m^2 IV, N=14",0 to 2.0 h
same,"tmax, mean ± SD","[1]; irinotecan 60 mg/m^2 IV, N=14, measured from start of 1.5-h infusion",2.18 ± 1.99^2 h
same,"PO/IV SN-38 AUC Ratio, Mean ± SD",[1]; irinotecan 60 mg/m^2 PO vs IV,0.504±0.195
same,"PO/IV SN-38 AUC Ratio, Median",[1]; irinotecan 60 mg/m^2 PO vs IV,0.447
same,"PO/IV SN-38 AUC Ratio, range",[1]; irinotecan 60 mg/m^2 PO vs IV,0.257-0.945
same,"AUC0-inf, mean ± SD","[1]; irinotecan 60 mg/m^2 PO, N=14",84.1 ± 54.7 ng·h/mL
same,"AUC0-inf, median","[1]; irinotecan 60 mg/m^2 PO, N=14",70.7 ng·h/mL
same,"AUC0-inf, range","[1]; irinotecan 60 mg/m^2 PO, N=14",22.8 to 223.6 ng·h/mL
same,"t1/2, mean ± SD","[1]; irinotecan 60 mg/m^2 PO, N=14",14.2 ± 5.87 h
same,"t1/2, median","[1]; irinotecan 60 mg/m^2 PO, N=14",13.4 h
same,"t1/2, range","[1]; irinotecan 60 mg/m^2 PO, N=14",4.7 to 25.7 h
same,"tmax, mean ± SD","[1]; irinotecan 60 mg/m^2 PO, N=14",2.97 ± 2.21 h
same,"tmax, median","[1]; irinotecan 60 mg/m^2 PO, N=14",2 h
same,"tmax, range","[1]; irinotecan 60 mg/m^2 PO, N=14",1.0 to 10.0 h
same,AUC of SN-38 following oral irinotecan as % of the value from an equivalent IV dose (mean±SD),[1]; oral vs equivalent IV dose of irinotecan,50±20%
same,"Cmax, mean ± SD",[1]; [6],15.94 ± 7.83 ng/mL
same,"Cmax, median",[1]; [6],13.8 ng/mL
same,"Cmax, range",[1]; [6],7.26 to 36.9 ng/mL
same,"Cmax, mean ± SD",[1]; [7],7.17 ± 3.90 ng/mL
same,"Cmax, median",[1]; [7],3.91 ng/mL
same,"Cmax, range",[1]; [7],1.31 to 14.8 ng/mL
same,"AUC0-inf, exposure over 6-week period",[2]; [8],"1,068 ng h/ml"
same,Cmax,[2]; [8],28 ng/mL
same,Cmax,"[2]; Oral Irinotecan, daily x 5 q 3 weeks x 2 cycles, N=14",7.2 ng/mL
"CCc1c2c(nc3ccc(OC(=O)N4CCC(N5CCCCC5)CC4)cc13)-c1cc3c(c(=O)n1C2)COC(=O)[C@]3(O)CC [irinotecan, 7-ethyl-10-[4-(1-piperidino)-1-piperidino]-carbonyloxycamptothecin]",Grade 3 and 4 Diarrhea,"[3]; All Cycles, 50 mg/m^2/day, N=7",14%
same,Grade 3 and 4 Nausea,"[3]; All Cycles, 50 mg/m^2/day, N=7",14%
same,Grade 3 and 4 Diarrhea,[3]; [9],16%
same,Grade 3 and 4 Nausea,[3]; [9],9%
same,Grade 3 and 4 Neutropenia,[3]; [9],9%
same,Grade 3 and 4 Neutropenic Fever,[3]; [9],3%
same,Grade 3 and 4 Vomiting,[3]; [9],12%
same,Grade 3 and 4 Diarrhea,"[3]; All Cycles, 70 mg/m^2/day, N=4",50%
same,Grade 3 and 4 Nausea,"[3]; All Cycles, 70 mg/m^2/day, N=4",3%
same,Grade 3 and 4 Neutropenia,"[3]; All Cycles, 70 mg/m^2/day, N=4",25%
same,Grade 3 and 4 Neutropenic Fever,"[3]; All Cycles, 70 mg/m^2/day, N=4",25%
same,Grade 3 and 4 Vomiting,"[3]; All Cycles, 70 mg/m^2/day, N=4",3%
same,Grade 3 and 4 Diarrhea,"[3]; Cycle 1, 50 mg/m^2/day, N=7",14%
same,Grade 3 and 4 Nausea,"[3]; Cycle 1, 50 mg/m^2/day, N=7",14%
same,Grade 3 and 4 Diarrhea,"[3]; Cycle 1, 60 mg/m^2/day, N=32",13%
same,Grade 3 and 4 Nausea,"[3]; Cycle 1, 60 mg/m^2/day, N=32",6%
same,Grade 3 and 4 Neutropenia,"[3]; Cycle 1, 60 mg/m^2/day, N=32",3%
same,Grade 3 and 4 Vomiting,"[3]; Cycle 1, 60 mg/m^2/day, N=32",9%
same,Grade 3 and 4 Diarrhea,"[3]; Cycle 1, 70 mg/m^2/day, N=4",50%
same,Grade 3 and 4 Neutropenia,"[3]; Cycle 1, 70 mg/m^2/day, N=4",25%
same,Grade 3 and 4 Neutropenic Fever,"[3]; Cycle 1, 70 mg/m^2/day, N=4",25%
same,recommended phase 11 dose,"[3]; SSM oral irinotecan, for 5 days every 3 wks",60 mg/m^2/daily
same,DLT (kind and grade),"[3]; Stage A, 50 mg/m^2/day oral","G3 diarrhea, G3 nausea, G3 dehydration; also recorded: Gr. 3 Nausea; also recorded: Gr. 3 Diarrhea; also recorded: Gr. 3 Dehydration"
same,Pts with DLT,"[3]; Stage A, 50 mg/m^2/day oral, 7 evaluable",1/7 and 1
same,DLT (kind and grade),"[3]; Stage A, 60 mg/m^2/day oral",None
same,Pts with DLT,"[3]; Stage A, 60 mg/m^2/day oral, 8 evaluable",0/8 and 0
same,DLT (kind and grade),"[3]; Stage A, 70 mg/m^2/day oral","G3 diarrhea, G4 ANC [absolute neutrophil counts]; G4 diarrhea, fever, dehydration, fatigue; also recorded: Pt 1: gr. 3 Diarrhea,; also recorded: Pt 2: gr. 4 Diarrhea,; also recorded: gr. 4 Dehydration"
same,Pts with DLT,"[3]; Stage A, 70 mg/m^2/day oral, 4 evaluable",2/4 and 2
same,DLT (kind and grade),"[3]; Stage B, 60 mg/m^2/day oral",Pt 1: Gr. 3 Diarrhea; also recorded: Pt 2: Gr. 3 Dehydration; also recorded: Pt 7: Gr. 3 Diarrhea
same,Pts with DLT,"[3]; Stage B, 60 mg/m^2/day oral, 24 evaluable",7
same,MTD,"[3]; oral, encapsulated semi-solid matrix, daily x5 q 3 weeks",60 mg/m^2/day
same,bioavailability,"[1]; human, in vivo, Absolute bioavailabiity of irinotecan, Mean ± SD",24 ± 23%
same,bioavailability,"[1]; human, in vivo, Absolute bioavailabiity of irinotecan, Median",15.4%
same,bioavailability,"[1]; human, in vivo, Absolute bioavailabiity of irinotecan, range",7.1 to 96%
same,Tmax,"[1]; human, in vivo, iv, 60 mg/m2",End of 1.5-h
same,AUC(0-inf),"[1]; human, in vivo, iv, mean ± SD",3020 ± 830 ng·h/mL
same,AUC(0-inf),"[1]; human, in vivo, iv, median",2610 ng·h/mL
same,AUC(0-inf),"[1]; human, in vivo, iv, range",1720 to 4790 ng·h/mL
same,Cmax,"[1]; human, in vivo, iv, mean ± SD",627 ± 142 ng/mL
same,Cmax,"[1]; human, in vivo, iv, median",593 ng/mL
same,Cmax,"[1]; human, in vivo, iv, range",416 to 897 ng/mL
same,"tmax, mean ± SD","[1]; human, in vivo, po, 60 mg/m2",3.15 ± 2.00 h
same,AUC(0-inf),"[1]; human, in vivo, po, mean ± SD",732 ± 665 ng·h/mL
same,AUC(0-inf),"[1]; human, in vivo, po, median",619 ng·h/mL
same,AUC(0-inf),"[1]; human, in vivo, po, range",167 to 2500 ng·h/mL
same,Cmax,"[1]; human, in vivo, po, mean ± SD",73.1 ± 67.6 ng/mL
same,Cmax,"[1]; human, in vivo, po, median, plasma, irinotecan 60 mg/m^2 PO, N=14",60.1 ng/mL
same,Cmax,"[1]; human, in vivo, po, range, plasma, irinotecan 60 mg/m^2 PO, N=14",9.49 to 274 ng/mL
same,Tmax,"[1]; human, in vivo, po, 60 mg/m2, tmax, mean ± SD",3 ± 2.2 h
same,Tmax,"[1]; human, in vivo, po, 60 mg/m2, tmax, range",1 to 10 h
same,bioavailability,"[1]; human, in vivo, po, absolute bioavailability (mean±SD)",25 ± 23%
same,best overall tumor response: partial responses,[4]; esophageal and small cell lung cancer,Two confirmed partial responses
same,best overall tumor response: stable disease cases,[4]; variety of tumor types,thirteen stable disease cases
same,AUC(0-inf),"[5]; in vivo, iv",42000 ng·h/mL
same,Cmax,"[5]; in vivo, iv",1500 ng/mL
same,AUC(0-inf),"[5]; plasma, po, 60 mg/m^2/daily",7320 ng·h/mL
same,Cmax,"[5]; plasma, po, 60 mg/m^2/daily",73.1 ng/mL
